Reference: patent US12203088B2, “Root-secreted peptide PEP1 in rice and gene encoding the same and use thereof” (ZHEJIANG UNIVERSITY, priority 2021, dated 2025)

Experiments:
rice seedlings = assay: Treatment of rice seedlings with synthetic PEP1, primary root length; assay type: in vivo, Oryza sativa L. ssp. Japonica cv. Xiushui134; conditions: wild-type seedlings, different concentrations of synthetic PEP1, treatment from sowing for 7 days
Text: Different letters indicate significant differences (P<0.01, ANOVA, LSD test);

[1] = system: OsPEP1 overexpressing transgenic plants; assay: Exogenous PEP1 on root tips of OsPEP1 overexpressing transgenic plants; assay type: in vivo, rice Xiushui 134; conditions: transgenic plant OE2, 10^−6 M PEP1 for 2 days
Text: (§1) E is the statistics of the apical meristem length indicated in D. Data are means±SD (n≥15 independent seedlings, three biological replicates). Different letters indicate significant differences (P<0.01, ANOVA, LSD test);
F is the statistics of the cell length in the elongation zone indicated in D. Data are means±SD (n≥15 independent seedlings, three biological replicates). Different letters indicate significant differences (P<0.01, ANOVA, LSD test).
In the obtained T2 OsPEP1 overexpressing transgenic rice plants, three representative plants (OE1, OE2, OE3) were chosen for phenotypic analysis. […] The relative expression levels of endogenous OsPEP1 in Xiushui 134 and OsPEP1 overexpressing transgenic plants (OE1, OE2, OE3) were analyzed by quantitative real-time PCR (primers: […] (SEQ ID NO: 9); […] (SEQ ID NO: 10)).

[2] = system: OsPEP1 RNAi transgenic plants; assay: Exogenous PEP1 on root tips of OsPEP1 RNAi transgenic plants; assay type: in vivo, rice Xiushui 134; conditions: transgenic plant Ri2, 10^−6 M PEP1 for 2 days
Text: D is the longitudinal phenotype of the root tip elongation zone (top) and meristem (bottom) of the wild-type WT and the transgenic plant Ri2 […] treated with 10^−6 M PEP1 for 2 days. Bar=100 μm;
as §1
F is the statistics of cell length in the elongation zone indicated in D. Data are means±SD (n≥15 independent seedlings, three biological replicates). Different letters indicate significant differences (P<0.01, ANOVA, LSD test).
In the obtained T2 OsPEP1 RNAi transgenic plants, three representative plants (Ri1, Ri2, Ri3) were selected for phenotypic analysis. […] The relative expression levels of endogenous OsPEP1 in Xiushui 134 and those OsPEP1 RNAi transgenic plants (Ri1, Ri2, Ri3) were analyzed by quantitative real-time PCR (primers: […] (SEQ ID NO: 9); […] (SEQ ID NO: 10)). […] Additionally, exogenous application of PEP1 could restore the root tip defected phenotype of OsPEP1 RNAi transgenic plants to the Xiushui 134 level (D-F in FIG. 5).

rice root tips = assay: Root tip longitudinal sections of wild-type rice after PEP1 treatment; assay type: in vivo, Oryza sativa L. ssp. Japonica cv. Xiushui134; set-up: length of cells in the elongation zone of rice root tips: dose or concentration left out as unconfirmed; conditions: wild-type plants

Ser-Asp-Phe-Asp-Arg (SDFDR; Amino acid sequence of PEP1) [rice root-secreted peptide of five amino acids, artificially synthesized for exogenous application]
rice primary root elongation (rice seedlings): significantly inhibited rice primary root elongation | restoration of root tip defected phenotype to the Xiushui 134 level [1]: could not restore | restoration of root tip defected phenotype to the Xiushui 134 level [2]: could restore | length of the meristem of rice root tips (rice root tips; 106 M PEP1 for 2 days): significantly shortened | length of cells in the elongation zone of rice root tips (rice root tips; PEP1 for 2 days): significantly shortened | changes in the quiescent center (rice root tips; root section after PEP1 treatment): no significant changes
